The values below come from patent US20100204202A1, “DRUG FOR ALLEVIATING MOTOR COMPLICATIONS OR PSYCHIATRIC SYMPTOMS OF PARKINSON'S DISEASE” (Asubio Pharma Co., Ltd., priority 2007, published 2010).

For data set [1], the target named is T1, rat serotonin 1A receptors (Rattus norvegicus, UniProt P19327).
T1 construct: Each rat was decapitated and the hippocampus was quickly removed; from tissue; host or cells: hippocampus of male Wistar rats
T1 sequence (P19327 1-422): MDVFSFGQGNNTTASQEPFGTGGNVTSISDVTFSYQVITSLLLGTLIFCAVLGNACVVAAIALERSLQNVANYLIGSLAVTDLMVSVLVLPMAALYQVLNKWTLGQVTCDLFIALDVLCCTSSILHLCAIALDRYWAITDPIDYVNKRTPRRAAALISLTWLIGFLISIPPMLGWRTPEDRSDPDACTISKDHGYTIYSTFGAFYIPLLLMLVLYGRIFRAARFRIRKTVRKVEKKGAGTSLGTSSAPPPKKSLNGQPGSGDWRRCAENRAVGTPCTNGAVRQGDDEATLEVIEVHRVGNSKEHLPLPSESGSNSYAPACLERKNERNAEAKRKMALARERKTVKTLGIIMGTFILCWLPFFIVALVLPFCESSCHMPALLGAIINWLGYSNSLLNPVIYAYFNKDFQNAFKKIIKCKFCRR
Description: Adenylate cyclase inhibition test via rat serotonin 1A receptors (full agonist-partial agonist judgment test), rat hippocampus membranes. Type of data set: biochemical. On the procedure:
For the test, Wistar male rats supplied by Shimizu Laboratory Supplies were used (9 to 15 weeks old). Each rat was decapitated and the hippocampus was quickly removed. It was homogenized in 10 volumes of buffer (i.e., 25 mM Tris-HCl, 1 mM EGTA, 5 mM EDTA, 5 mM DTT, 300 mM sucrose, 100 KIU/ml aprotinin, pH 7.4). This was then centrifuged at 500×g, 4° C. for 5 minutes, the supernatant was further centrifuged at 39,000×g, 4° C. for 10 minutes, and the residue was used as the rat hippocampus membrane specimen. The rat hippocampus membrane specimen was diluted by a buffer to 20 to 90 μg/mL of protein, then 50 μL of this cell membrane suspension was added to a 200 μL assay buffer containing each test sample (25 mM Tris-HCl, 100 mM NaCl, 2 mM MgCl2. 0.25 mM ATP, 5 mM phosphocreatine, 10 μg/mL creatine phosphokinase, 0.2 mM IBMX, 10 μM GTP, 10 μM forskolin, pH 7.4) and allowed to react at 30° C. for 5 minutes. 0.2N HCl was added in 250 μL to stop the reaction, then the cAMP produced was assayed by the radioimmunoassay method. […] Note that the adenylate cyclase activity was measured using as an indicator the amount of cAMP produced by the same enzyme. The rate of inhibition by the serotonin 1A receptor agonist was found using the amount of production due to forskolin (10 μM) stimulus as 100%.

The subject of data set [2] is Parkinson's disease model rats. Briefly: Rate of incidence of rotational behavior induced by levodopa dosage (response failure). The settings on record: sustained subcutaneous administration (osmotic pump) from week 6 of repeated levodopa, 2 weeks. Type of data set: in vivo, rat. On the procedure: (§1) Therefore, the inventors prepared Parkinson's disease model rats in the same way as in Example 4 and treated the rats by repeated doses of levodopa (twice a day, Monday to Friday) for 7 weeks. The presence or absence of the rotational behavior of each rat was recorded at approximately 1 hour after the administration of levodopa during the repeated dosing period. […] Therefore, from weeks 1 to 5 of repeated doses of levodopa, the inventors recorded the presence of any rotational behavior of the rats each time, then studied the effects of the tested substances from week 6 of repeated doses of levodopa by implanting an Aizet® osmotic pump filled with SUN N4057 or physiological saline (2ML4, volume 2 ml, flow rate 2.5 μl/hr) subcutaneously at the rats. In the 2 weeks after that, the inventors similarly continued to record the presence of any rotational behavior of the rats 1 hour after levodopa administration.

Data set [3] can be described thus: Concentration in plasma after sustained subcutaneous administration (osmotic pump). Type of data set: in vivo. As to conditions: rat, sc, after the end of the behavioral experiments. On the procedure:
as §1
Note that the measured values of the concentration of SUN N4057 in the plasma of each group measured after the end of the behavioral experiments were 5.3±0.7 ng/mL in the SUN N4057 low dosage sustained subcutaneous administration group and 14.3±2.9 ng/mL in the high dosage sustained subcutaneous administration group.

Data set [4] in a line: Solubility (choice of solvent). It is filed as physicochemical. As to conditions: physiological saline. As for the experimental part: Note that the SUN […] was subcutaneously administered right before levodopa administration, the sarizotan was orally administered about 20 minutes before levodopa dosage in accordance with above-mentioned known reports (Bibbiani F. et al., Neurology, 2001, 57, p. 1829-1834), and the Example Compound 4 of Japanese Patent Publication No. 2005-298402A was subcutaneously administered about 30 minutes before levodopa dosage in accordance with the above-mentioned Japanese Patent Publication No. 2005-298402A. Further, for the solvent, for SUN […] and Example Compound 4 of Japanese Patent Publication No. 2005-298402A, physiological saline was used.

Counter-ions that a name gives are not always drawn.

One may read the IC50 as the midpoint of a concentration-inhibition curve.

As for `O=C1c2ccccc2OC=C(Cl)N1CCCCN1CC=C(c2ccccn2)CC1` [SUN N4057, 3-chloro-4,5-dihydro-4-{4-[4-(2-pyridyl)-1,2,3,6-tetrahydropyridin-1-yl]butyl}-1,4-benzoxazepin-5-one.dihydrochloride-dihydrate], in data set [1] (forskolin (10 μM) stimulated, rat hippocampus membranes, read-out: IC50 of adenylate cyclase inhibition (for the maximum reaction)), the half-inhibitory concentration (IC50) was found to be 2.67 nM. In addition, in data set [1] (forskolin (10 μM) stimulus = 100%, rat hippocampus membranes, read-out: maximum inhibitory reaction of adenylate cyclase activity), the inhibition was 20%. For the same compound, the “full agonist-partial agonist judgment” value in data set [1] (serotonin 1A receptors of the serotonin nerve post-synapse membrane) was “partial agonist”. Besides, the “rate of incidence of rotational behavior” value in data set [2] is listed as “action on recovery”. Further, the concentration at 2 weeks came out at 14.3 ± 2.9 ng/mL in data set [3] (high dosage sustained subcutaneous administration group) and 5.3 ± 0.7 ng/mL in data set [3] (low dosage sustained subcutaneous administration group).
In the case of `Cl.Cl.Fc1ccc(-c2cncc(CNC[C@H]3CCc4ccccc4O3)c2)cc1` [Sarizotan, 1-[(2R)-3,4-dihydro-2H-chromen-2-yl]-N-{[5-(4-fluorophenyl)pyridin-3-yl]methyl}methanamine dihydrochloride], the “solubility (in words)” value in data set [4] was “poor in solubility”.
